Marks after values point to notes of the source that are not given here.

This assay relates to zebra fish high blood lipid model. The assay is described as follows: Quantitative evaluation of blood lipid lowering effect in zebra fish high blood lipid model. The assay is classed as in vivo, zebra fish of ALBINO strain. To be noted: 48 hours after treatment; for Blood lipid reducing rate: 0.081 µg/ml (text: 0.08 µg/ml), vs model group. Here is the method:
Animal: Zebra fish embryos were propagated by means of natural pair mating. Each mating, 4∼5 pairs of adult were prepared, and in average, each pair of zebra fish produced 200∼300 embryos. At 6th hour post-fertilization (6hpf) and 24hpf, the embryos were cleaned (removing dead embryo) and qualified embryos were selected according to embryo developing stage (Kimmel et al. 1995). At 28°C, embryos were incubated in fish-farming water, which contained 200mg instant soluble sea salt in 1L reverse osmosis water with conductivity of 480-510 µS/cm, pH of 6.9-7.2, hardness of 53.7-71.6 mg/L CaCO3. Feeding was required since 9 days post-fertilization (9dPf) because the embryos could get nutrients from their own yolk sac. After study, tricaine methane sulfonate (TMS) was used to overexpose the embryos in various developmental stages and the zebra fish were anesthetized and sacrificed. Sacrifice procedure was in light of the sacrifice-under-anesthesia regulatory requirement of AVMA (America Veterinary medical Association).
According to results of part A, the blood lipid lowering effect of Danshen extract in three concentrations was evaluated (usually at MNLC, 1/3MNLC and 1/10 MNLC), and 30 zebra fish treated in each concentration.
High-fat food was used to feed juvenile fish of zebra fish of ALBINO strain to induce zebra fish high blood lipid model.
After feeding, the zebra fish high blood lipid model was treated with tested drug for 48 hours.
Positive drug: lovastatin at 0.08 µg/ml.
After being treated with tested drugs, zebra fish were fat stained with fat-specific colorant.
Fifteen zebra fish were randomly selected in each concentration to observe intensity of zebra fish tail blood fat stain, pictured and saved.
Image -Pro Plus 6.0 image analytical software was used to analyze the image. The signal strength of zebra fish tail blood fat stain (S) was calculated and quantitatively analyzed. The statistical results were expressed as X ± SE. […]

For the compound `CC[C@H](C)C(=O)O[C@H]1C[C@@H](C)C=C2C=C[C@H](C)[C@H](CC[C@@H]3C[C@@H](O)CC(=O)O3)[C@H]21` [Lovastatin, lovastatin], the “Blood lipid reducing rate” value is 26.3* %. In addition, the “Blood lipid reducing rate” value (listed as lovastatin) amounted to 26.3%. For the same compound, the “Tail blood lipid IOD” value (0.081 µg/ml, Mean±SE) is recorded as 2142±109.

For the origin of these results see patent EP3011965B1, “SALVIA MILTIORRHIZA EXTRACT, MICROPELLET FORMULATION THEREOF, METHODS OF PREPARING SAME, AND USES THEREOF” (Tasly Pharmaceutical Group Co., Ltd., priority 2013, dated 2014).
